Assays:
Assay type in all cases: in vivo
[1] = tested on: ryegrass, Italian (Italian ryegrass, Lolium multiflorum); assay: Test A postemergence, ryegrass, Italian; details: 10 days
Method in brief: (§1)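 Both application timings shared one formulation: test chemical in non-phytotoxic solvent with surfactant. Preemergence used a directed soil spray at sowing, postemergence a spray on 2–10 cm seedlings. Untreated plants served as reference for 0–100 visual ratings after 10 days.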

[2] = tested on: barnyardgrass (Echinochloa crus-galli); assay: Test B flooded paddy test, barnyardgrass; details: 250 g ai/ha, Flood; visually evaluated after 10 to 14 days
Method in brief: (§2)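 2-leaf plants; pots flooded to 3 cm; compound applied to paddy water; depth kept constant; greenhouse 10–14 d; visual rating vs untreated, 0 = no effect, 100 = complete control.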

corn (Zea mays) = assay: Test A postemergence, corn; details: Postemergence, 0 to 100 scale, 10 days
Method in brief: as §1

[3] = tested on: ragweed (common ragweed, Ambrosia artemisiifolia); assay: Test A preemergence, ragweed; details: 0 to 100 scale, 10 days
Method in brief: as §1

[4] = tested on: sedge, umbrella (small-flower umbrella sedge, Cyperus difformis); assay: Test B flooded paddy test, sedge, umbrella; details: 250 g ai/ha, Flood; visually evaluated after 10 to 14 days
Method in brief: as §2

[5] = tested on: wheat (Triticum aestivum); assay: Test A postemergence, wheat; details: 10 days
Method in brief: as §1

[6] = tested on: barnyardgrass (Echinochloa crus-galli); assay: Test A postemergence, barnyardgrass; details: Postemergence, 0 to 100 scale, 10 days
Method in brief: as §1

kochia (Bassia scoparia) [7] = assay: Test A preemergence, kochia; details: 0 to 100 scale, 10 days
Method in brief: as §1

[8] = tested on: blackgrass (Alopecurus myosuroides); assay: Test A postemergence, blackgrass; details: Postemergence, 0 to 100 scale, 10 days
Method in brief: as §1

[9] = tested on: redroot pigweed (Amaranthus retroflexus); assay: Test A postemergence, redroot pigweed; details: 10 days
Method in brief: as §1

[10] = tested on: barnyardgrass (Echinochloa crus-galli); assay: Test A preemergence, barnyardgrass; details: 10 days
Method in brief: as §1

kochia (Bassia scoparia) [11] = assay: Test A postemergence, kochia; details: 10 days
Method in brief: as §1

rice (Oryza sativa) = assay: Test B flooded paddy test, rice; details: 250 g ai/ha, Flood; visually evaluated after 10 to 14 days
Method in brief: as §2

[12] = tested on: ragweed (common ragweed, Ambrosia artemisiifolia); assay: Test A postemergence, ragweed; details: 10 days
Method in brief: as §1

[13] = tested on: galium (catchweed bedstraw, Galium aparine); assay: Test A postemergence, galium; details: 10 days
Method in brief: as §1

[14] = tested on: foxtail, green (green foxtail, Setaria viridis); assay: Test A postemergence, foxtail, green; details: 10 days
Text: (§3) Seeds of plant species selected from barnyardgrass (Echinochloa crus-galli), blackgrass (Alopecurus myosuroides), corn (Zea mays), foxtail, giant (giant foxtail, Setaria faberi), foxtail, green (green foxtail, Setaria viridis), goosegrass (Eleusine indica), kochia (Bassia scoparia), oat, wild (wild oat, Avena fatua), palmer amaranth (pigweed, palmer, Amaranthus palmeri), redroot pigweed (Amaranthus retroflexus), ragweed (common ragweed, Ambrosia artemisiifolia), ryegrass, Italian (Italian ryegrass, Lolium multiflorum), and soybean (Glycine max) were planted into a blend of loam soil and sand and treated preemergence with a directed soil spray using test chemicals formulated in a non-phytotoxic solvent mixture which included a surfactant.
(§4) At the same time, plants selected from these crop and weed species and also wheat (Triticum aestivum), galium (catchweed bedstraw, Galium aparine) and horseweed (Erigeron canadensis) were planted in pots containing the same blend of loam soil and sand and treated with postemergence applications of test chemicals formulated in the same manner. Plants ranged in height from 2 to 10 cm and were in the one- to two-leaf stage for the postemergence treatment. Treated plants and untreated controls were maintained in a greenhouse for 10 days, after which time all treated plants were compared to untreated controls and visually evaluated for injury. Plant response ratings, summarized in Table A, are based on a 0 to 100 scale where 0 is no effect and 100 is complete control. A dash (-) response means no test result.

[15] = tested on: ducksalad (Heteranthera limosa); assay: Test B flooded paddy test, ducksalad; details: 250 g ai/ha, Flood; visually evaluated after 10 to 14 days
Method in brief: as §2

[16] = tested on: foxtail, green (green foxtail, Setaria viridis); assay: Test A preemergence, foxtail, green; details: 0 to 100 scale, 10 days
Text: as §3, §4

[17] = tested on: redroot pigweed (Amaranthus retroflexus); assay: Test A preemergence, redroot pigweed; details: 0 to 100 scale, 10 days
Method in brief: as §1

[18] = tested on: ryegrass, Italian (Italian ryegrass, Lolium multiflorum); assay: Test A preemergence, ryegrass, Italian; details: 0 to 100 scale, 10 days
Method in brief: as §1

[19] = 31 g ai/ha, postemergence, 0 to 100 scale (0 no effect, 100 complete control)
[20] = Postemergence, 125 g ai/ha, 0 to 100 scale

Cc1ccc2ccccc2c1-c1c(OCOC(=O)C(C)(C)C)c(Cl)nn(C)c1=O [Compound 7]
0: Plant response rating, Barnyardgrass (0 to 100 scale where 0 is no effect and 100 is complete control) [2] | Plant response rating, Sedge, Umbrella (0 to 100 scale where 0 is no effect and 100 is complete control) [4] | Plant response rating, Wheat [5, 19] | Plant response rating, Blackgrass ([8]; 31 g ai/ha) | Plant response rating, Rice (0 to 100 scale where 0 is no effect and 100 is complete control) (rice (Oryza sativa)) | Plant response rating, Ducksalad (0 to 100 scale where 0 is no effect and 100 is complete control) [15]
100: Plant response rating, Foxtail, Green ([16]; 125 g ai/ha) | Plant response rating, Pigweed, Redroot ([17]; 31 g ai/ha) | Plant response rating, Pigweed, Redroot ([17]; 125 g ai/ha)
10: Plant response rating, Corn (corn (Zea mays); 31 g ai/ha) | Plant response rating, Corn (corn (Zea mays); 125 g ai/ha) | Plant response rating, Barnyardgrass ([6]; 31 g ai/ha) | Plant response rating, Kochia (kochia (Bassia scoparia) [7]; 31 g ai/ha) | Plant response rating, Foxtail, Green [14, 19]
80: Plant response rating, Barnyardgrass ([6]; 125 g ai/ha) | Plant response rating, Pigweed, Redroot [9, 19]
60: Plant response rating, Foxtail, Green ([16]; 31 g ai/ha)
30: Plant response rating, Blackgrass ([8]; 125 g ai/ha) | Plant response rating, Kochia (kochia (Bassia scoparia) [11]; [19])
70: Plant response rating, Ryegrass, Italian [1, 20] | Plant response rating, Kochia (kochia (Bassia scoparia) [7]; 125 g ai/ha) | Plant response rating, Kochia (kochia (Bassia scoparia) [11]; [20]) | Plant response rating, Ragweed [12, 19] | Plant response rating, Galium [13, 19] | Plant response rating, Foxtail, Green [14, 20]
90: Plant response rating, Ragweed ([3]; 125 g ai/ha) | Plant response rating, Pigweed, Redroot [9, 20] | Plant response rating, Barnyardgrass ([10]; 125 g ai/ha, 0 to 100 scale (0 no effect, 100 complete control)) | Plant response rating, Ragweed [12, 20] | Plant response rating, Galium [13, 20] | Plant response rating, Ryegrass, Italian ([18]; 125 g ai/ha)
50: Plant response rating, Ryegrass, Italian [1, 19] | Plant response rating, Ragweed ([3]; 31 g ai/ha) | Plant response rating, Wheat [5, 20] | Plant response rating, Barnyardgrass ([10]; 31 g ai/ha, 0 to 100 scale) | Plant response rating, Ryegrass, Italian ([18]; 31 g ai/ha)
